# According to publication PMC8875074, “Development of Bactericidal Peptides against Multidrug-Resistant Acinetobacter baumannii with Enhanced Stability and Low Toxicity” (International Journal of Molecular Sciences, 2022):
# Read-outs that look alike come from different tables or passages of the source.
# Key:
# Format in all cases: cell-based, Acinetobacter baumannii
# [1] = tested on: MDR A. baumannii 3618; test: Fractional inhibitory concentration (FIC) index assay; conditions: strain 3618
# Method: (§1) A 2-fold dilution of peptide in 50 µL of media was performed along the vertical axis of a 96-well plate. Similarly, 50 µL of the next drug was diluted 2-fold along the horizontal axis. Next, 50 µL of […] was added, and the standard MIC protocol was performed. The FIC index was calculated according to the following formula:FICI = FIC A + FIC B where FIC A is MIC A & B combined/MIC A and FIC B is MIC A & B combined/[…].
# [2] = tested on: MDR A. baumannii 2997; test: as above; conditions: strain 2997
# Method: as §1
# [3] = tested on: MDR A. baumannii 1019; test: as above; conditions: strain 1019
# Method: as §1
# [4] = tested on: MDR A. baumannii 1033; test: as above; conditions: strain 1033
# Method: as §1
# [5] = tested on: MDR A. baumannii 2088; test: as above; conditions: strain 2088
# Method: as §1
# [6] = tested on: MDR A. baumannii 14B001; test: as above; conditions: strain 14B001
# Method: as §1
# [7] = tested on: MDR A. baumannii 2998; test: as above; conditions: strain 2998
# Method: as §1
# [8] = tested on: MDR A. baumannii 1607; test: as above; conditions: strain 1607
# Method: as §1
# [9] = tested on: MDR A. baumannii 2962; test: as above; conditions: strain 2962
# Method: as §1
# [10] = tested on: MDR A. baumannii 921; test: as above; conditions: strain 921
# Method: as §1
# [11] = tested on: MDR A. baumannii 2982; test: as above; conditions: strain 2982
# Method: as §1
# [12] = tested on: MDR A. baumannii 1702; test: as above; conditions: strain 1702
# Method: as §1
# [13] = tested on: A. baumannii; test: Peptide sensitivity to temperature (MIC/MBC after heating)
# Method: (§2) Bacterial cells Acinetobacter baumannii 10591 and 14B0091 were obtained from BCRC Taiwan. All the MDR strains were obtained from the hospital as gifts. The antimicrobial assay was performed as per the standard protocol; 50 µL of 10^6 CFU/mL of mid-log phase bacterial suspension was treated with 50 µL of candidate peptide and meropenem (Sigma: PHR1772) incubated at 37 °C for 960~1200 min. The clear wells corresponding to the lowest concentrations are reported as the minimum inhibitory concentration (MIC). Suspensions from the clear wells were plated on Mueller–Hinton agar (MHA) plates and incubated at 37 °C overnight. The lowest concentration corresponding to no growth was recorded as the minimum bactericidal concentration (MBC). To detect the effect of human serum (H3667, Sigma Aldrich, St. Louis, MO, USA) on the peptides, the media was replaced with 50% human serum-containing media. Similarly, to detect the effect of lung surfactant (SURVANTA®, beractant, AbbVie Inc., Lake Bluff, IL, USA (25 mg/mL)) on the antimicrobial activity of the peptide, the normal media was replaced with 5% lung surfactant-containing media. To analyse the bacterial killing kinetics, after the addition of the peptide to the bacterial suspension, 10 µL of broth was diluted 1000 times, plated at 30 min intervals, and allowed to incubate for 90 min. The bacterial load is expressed as CFU/mL as a function of time.
# Here, 50 µL of 10^6 CFU/mL bacterial cells were treated with peptide previously incubated at 40, 60, 80, and 100 °C for 1 h. The peptide activity was reported as per the standard MIC and MBC protocols.
# [14] = tested on: A. baumannii 10591; test: MIC/MBC antimicrobial assay; conditions: for MBC: A. baumannii 10591 wild strain, triplicate, two independent experiments
# Method: as §2
# [15] = tested on: MDR A. baumannii 14B0091; test: MIC/MBC antimicrobial assay; conditions: MDR strain 14B0091, triplicate, two independent experiments
# Method: as §2
# [16] = Acinetobacter baumannii, drug alone, two experiments in triplicate
# [17] = Acinetobacter baumannii, media containing 50% human serum, read-out: MBC
smiles,measurement,setting,value
"C[C@@H](O)[C@H]1C(=O)N2C(C(=O)O)=C(S[C@@H]3CN[C@H](C(=O)N(C)C)C3)[C@H](C)[C@H]12 [Meropenem, meropenem]",MIC,[1]; [16],100 µg/mL
same,MIC in Combination,[1]; TP2-5 combined with meropenem,50 µg/mL
same,MIC in Combination,[1]; TP2-6 combined with meropenem,25 µg/mL
same,MIC,[2]; [16],100 µg/mL
same,MIC in Combination,[2]; TP2-5 combined with meropenem,50 µg/mL
same,MIC in Combination,"[2]; TP2-6 combined with meropenem, first printed pair of the cells (before the slash)",50 µg/mL
same,MIC in Combination,"[2]; TP2-6 combined with meropenem, second printed pair of the cells (after the slash)",25 µg/mL
same,MIC,[3]; [16],25 µg/mL
same,MIC in Combination,[3]; TP2-5 combined with meropenem,12.5 µg/mL
same,MIC in Combination,[3]; TP2-6 combined with meropenem,12.5 µg/mL
same,MIC,[4]; [16],50 µg/mL
same,MIC in Combination,[4]; TP2-5 combined with meropenem,50 µg/mL
same,MIC in Combination,[4]; TP2-6 combined with meropenem,25 µg/mL
same,MIC,[5]; [16],200 µg/mL
same,MIC in Combination,[5]; TP2-5 combined with meropenem,100 µg/mL
same,MIC in Combination,[5]; TP2-6 combined with meropenem,100 µg/mL
same,MIC,[6]; [16],400 µg/mL
same,MIC in Combination,[6]; TP2-5 combined with meropenem,200 µg/mL
same,MIC in Combination,[6]; TP2-6 combined with meropenem,200 µg/mL
same,MIC,[7]; [16],200 µg/mL
same,MIC in Combination,[7]; TP2-5 combined with meropenem,200 µg/mL
same,MIC in Combination,[7]; TP2-6 combined with meropenem,100 µg/mL
same,MIC,[8]; [16],25 µg/mL
same,MIC in Combination,[8]; TP2-5 combined with meropenem,25 µg/mL
same,MIC in Combination,[8]; TP2-6 combined with meropenem,25 µg/mL
same,MIC,[9]; [16],50 µg/mL
same,MIC in Combination,[9]; TP2-5 combined with meropenem,25 µg/mL
same,MIC in Combination,[9]; TP2-6 combined with meropenem,25 µg/mL
same,MIC,[10]; [16],100 µg/mL
same,MIC in Combination,[10]; TP2-5 combined with meropenem,100 µg/mL
same,MIC in Combination,[10]; TP2-6 combined with meropenem,50 µg/mL
same,MIC,[11]; [16],100 µg/mL
same,MIC in Combination,[11]; TP2-5 combined with meropenem,100 µg/mL
same,MIC in Combination,[11]; TP2-6 combined with meropenem,100 µg/mL
same,MIC,[12]; [16],12.5 µg/mL
same,MIC in Combination,[12]; TP2-5 combined with meropenem,12.5 µg/mL
same,MIC in Combination,[12]; TP2-6 combined with meropenem,1.56 µg/mL
same,MIC,[13]; Acinetobacter baumannii,1.56 µg/mL
same,MBC,"[13]; Acinetobacter baumannii, agent incubated at 40 °C for 1 h prior to the assay, triplicate, two experiments",1.56 µg/mL
same,MBC,"[13]; Acinetobacter baumannii, agent incubated at 60 °C for 1 h prior to the assay, triplicate, two experiments",1.56 µg/mL
same,MBC,"[13]; Acinetobacter baumannii, agent incubated at 80 °C for 1 h prior to the assay, triplicate, two experiments",3.12 µg/mL
same,MIC,"[13]; Acinetobacter baumannii, agent incubated at 80 °C for 1 h prior to the assay, triplicate, two experiments, read-out: MIC",3.12 µg/mL
same,MBC,"[13]; Acinetobacter baumannii, agent incubated at 100 °C for 1 h prior to the assay, triplicate, two experiments",50 µg/mL
same,MIC,"[13]; Acinetobacter baumannii, agent incubated at 100 °C for 1 h prior to the assay, triplicate, two experiments, read-out: MIC",50 µg/mL
same,MIC,"[13]; agent incubated at 60 °C for 1 h prior to the assay, triplicate, two experiments",1.56 µg/mL
same,MBC,[14]; media containing 5% lung surfactant,1.56 µg/mL
same,MIC,"[14]; Acinetobacter baumannii, 10591",1.56 µg/mL
same,MBC,[14]; [17],1.56 µg/mL
same,MBC,[15]; [17],> 100 µg/mL
same,MIC,"[15]; Acinetobacter baumannii, media containing 50% human serum, read-out: MIC",> 100 µg/mL
same,MBC,[15]; normal media,>100 µg/mL
same,MIC,[15]; normal media,>100 µg/mL
